Source: publication PMC2746553 (Biochemistry, 2009)

Legend:
[1] = target: T1, 15-hLO-2 (human epithelial 15-lipoxygenase-2) (Homo sapiens, UniProt O15296)
T1 sequence (O15296 1-676): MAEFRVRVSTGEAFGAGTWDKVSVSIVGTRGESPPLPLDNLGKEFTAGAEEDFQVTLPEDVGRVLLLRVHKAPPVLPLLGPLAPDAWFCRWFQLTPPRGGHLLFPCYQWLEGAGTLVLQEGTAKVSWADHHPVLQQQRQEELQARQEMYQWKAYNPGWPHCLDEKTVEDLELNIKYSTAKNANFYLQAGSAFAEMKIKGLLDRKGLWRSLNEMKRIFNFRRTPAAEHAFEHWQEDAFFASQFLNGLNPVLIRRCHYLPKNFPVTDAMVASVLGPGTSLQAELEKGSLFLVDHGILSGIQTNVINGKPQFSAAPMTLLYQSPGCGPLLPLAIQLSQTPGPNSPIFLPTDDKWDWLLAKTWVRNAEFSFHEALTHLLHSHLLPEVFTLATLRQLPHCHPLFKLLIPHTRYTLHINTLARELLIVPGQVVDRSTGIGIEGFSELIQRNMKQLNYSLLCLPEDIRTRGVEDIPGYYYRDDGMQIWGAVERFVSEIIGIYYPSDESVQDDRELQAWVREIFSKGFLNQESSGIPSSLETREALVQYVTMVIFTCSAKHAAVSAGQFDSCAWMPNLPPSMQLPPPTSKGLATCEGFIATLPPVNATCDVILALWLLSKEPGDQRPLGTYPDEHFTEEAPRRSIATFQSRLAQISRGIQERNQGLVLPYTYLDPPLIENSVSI

[2] = target: T1, 15-hLO-2 (human epithelial 15-lipoxygenase-2); test: competitive substrate capture, solvent isotope effect and steady-state kinetics; type: biochemical
[3] = target: T1, 15-hLO-2 (human epithelial 15-lipoxygenase-2); test: competitive kinetic isotope effect and competitive substrate capture; type: biochemical
[4] = target: T1, 15-hLO-2 (human epithelial 15-lipoxygenase-2); test: steady-state inhibition kinetics with AA as substrate; type: biochemical

**Q.** Which “steady-state kinetics (234 nm), kcat/KM at pH 7.5” value [1] does the source give for `CCCCC/C=C\C/C=C\C/C=C\C/C=C\CCCC(=O)O` [AA, arachidonic acid] here?
**A.** 0.15 ± 0.02 μM^-1 s^-1

**Q.** With `CCCCC[C@H](O)/C=C/C=C\CCCCCCCC(=O)O` [13-HODE, 13-(S)-hydroxyoctadecadienoic acid] as the compound, how does the Kd [2] read?
**A.** ~0.005 µM

**Q.** How did the “competitive kinetic isotope effect and competitive substrate capture (HPLC)” value [3] turn out when `CCCCC/C=C\C/C=C\CCCCCCCC(=O)O` [LA, linoleic acid] was run?
**A.** 45 ± 3

**Q.** Which Ki [4] does the source give for `CCCCC/C=C\C/C=C\CCCCCCCC(=O)O` [d31-LA] here?
**A.** 17 ± 3 µM
